Patent US20210244720A1, “Therapeutic Tyrosine Kinase Inhibitors for Relapsing Multiple Sclerosis (RMS)” (Genzyme Corporation, priority 2020, published 2021)

Test system: CD19+ B-cell counts
Assay: Phase 1 absolute CD19+ B-cell counts
Excerpt: Dose regimen: The dose range chosen for this study is informed by several assessments.

## C=CC(=O)N1CCC[C@@H](n2c(=O)n(-c3ccc(Oc4ccccc4)cc3)c3c(N)nccc32)C1 [the BTK inhibitor, (R)-1-(1-acryloylpiperidin-3-yl)-4-amino-3-(4-phenoxyphenyl)-1H-imidazo[4,5-c]pyridin-2(3H)-one]
  dose at which the dose-response relationship for the CD19+ B-cell increase is maximal: approximately 30 mg once daily
